Experiment: Solubility of the compound in solvents
Format: physicochemical
Settings: at 5° C.

Q: Which “solubility in a mixed solution of 70 wt. % t-butanol/water” value does the source give for `[O-][S+](CC(F)(F)F)c1cc(OCCCCCSC(F)(F)F)c(F)cc1Cl` (stereo not shown) [B-a, 5-trifluoromethylthiopentyl-[4-chloro-2-fluoro-5-(2,2,2-trifluoroethylsulfinyl)phenyl]ether] here?
A: Its value is “about 2 wt. %”.

From US12552744B2, “Method for producing monosulfoxide derivative” (KUMIAI CHEMICAL INDUSTRY CO., LTD., priority 2020, dated 2026)
